We go through five compounds from ChEMBL document CHEMBL2074299, “Hepatic uptake of the novel antifungal agent caspofungin” (Drug Metab Dispos, 2005).

What all share (assay type): functional, cell-based
Data set [1] concerns the target T1, NTCP (hepatic sodium/bile acid cotransporter) (Homo sapiens, UniProt Q14973).
T1 sequence (Q14973 whole entry): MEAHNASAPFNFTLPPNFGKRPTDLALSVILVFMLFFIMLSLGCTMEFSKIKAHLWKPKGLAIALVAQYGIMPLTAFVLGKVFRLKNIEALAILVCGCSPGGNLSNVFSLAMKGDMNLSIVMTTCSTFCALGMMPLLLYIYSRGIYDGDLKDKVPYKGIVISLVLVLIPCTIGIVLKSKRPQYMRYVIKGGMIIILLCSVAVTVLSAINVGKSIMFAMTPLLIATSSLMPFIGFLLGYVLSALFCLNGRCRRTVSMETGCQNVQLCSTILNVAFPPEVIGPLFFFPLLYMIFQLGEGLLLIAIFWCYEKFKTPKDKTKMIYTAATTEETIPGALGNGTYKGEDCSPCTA
Briefly: TP_TRANSPORTER: inhibition of Taurocholate uptake (Caspofungin:100 uM) in NTCP-expressing HeLa cells. On the set-up: scale not given: the % may be the effect or the level left. Conditions: HeLa cells that express NTCP, probe taurocholate, read-out: Activity.

For data set [2], the target named is ATP-dependent translocase ABCB1 (Homo sapiens, UniProt P08183). Description: TP_TRANSPORTER: cell accumulation of vinblastine in KB-V1 cells.
For data set [3], the target named is T2, Solute carrier organic anion transporter family member 1B1 (Homo sapiens, UniProt Q9Y6L6).
T2 sequence (Q9Y6L6 whole entry): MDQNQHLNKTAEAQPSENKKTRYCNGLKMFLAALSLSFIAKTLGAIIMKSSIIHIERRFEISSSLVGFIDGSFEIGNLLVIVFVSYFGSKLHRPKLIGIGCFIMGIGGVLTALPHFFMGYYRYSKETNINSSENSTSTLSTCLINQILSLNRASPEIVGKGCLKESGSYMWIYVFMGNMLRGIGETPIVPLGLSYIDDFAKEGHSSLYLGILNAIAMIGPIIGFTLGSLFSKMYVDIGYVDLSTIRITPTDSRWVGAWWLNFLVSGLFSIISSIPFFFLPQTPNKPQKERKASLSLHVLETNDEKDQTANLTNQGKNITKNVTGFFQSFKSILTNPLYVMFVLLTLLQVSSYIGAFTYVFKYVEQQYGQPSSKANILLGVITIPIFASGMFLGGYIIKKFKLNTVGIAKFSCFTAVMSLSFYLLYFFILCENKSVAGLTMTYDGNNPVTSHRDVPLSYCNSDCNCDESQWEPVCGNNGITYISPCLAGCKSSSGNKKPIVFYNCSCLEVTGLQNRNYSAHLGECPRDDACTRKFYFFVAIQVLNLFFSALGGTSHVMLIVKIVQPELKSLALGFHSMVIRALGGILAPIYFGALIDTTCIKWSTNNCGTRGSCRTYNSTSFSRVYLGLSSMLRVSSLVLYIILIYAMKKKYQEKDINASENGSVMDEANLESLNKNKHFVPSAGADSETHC
Description: TP_TRANSPORTER: uptake in OATP1B1-expressing Tet-on HeLa cells.

The target in data set [4] is T2, Solute carrier organic anion transporter family member 1B1. Description: TP_TRANSPORTER: inhibition of estradiol-17beta-D-glucuronide uptake (Caspofungin:100 uM) in OATP1B1-expressing HeLa cells. On the set-up: scale not given: the % may be the effect or the level left.
For data set [5], the target named is T3, Solute carrier family 22 member 6 (Homo sapiens, UniProt Q4U2R8).
T3 sequence (Q4U2R8 whole entry): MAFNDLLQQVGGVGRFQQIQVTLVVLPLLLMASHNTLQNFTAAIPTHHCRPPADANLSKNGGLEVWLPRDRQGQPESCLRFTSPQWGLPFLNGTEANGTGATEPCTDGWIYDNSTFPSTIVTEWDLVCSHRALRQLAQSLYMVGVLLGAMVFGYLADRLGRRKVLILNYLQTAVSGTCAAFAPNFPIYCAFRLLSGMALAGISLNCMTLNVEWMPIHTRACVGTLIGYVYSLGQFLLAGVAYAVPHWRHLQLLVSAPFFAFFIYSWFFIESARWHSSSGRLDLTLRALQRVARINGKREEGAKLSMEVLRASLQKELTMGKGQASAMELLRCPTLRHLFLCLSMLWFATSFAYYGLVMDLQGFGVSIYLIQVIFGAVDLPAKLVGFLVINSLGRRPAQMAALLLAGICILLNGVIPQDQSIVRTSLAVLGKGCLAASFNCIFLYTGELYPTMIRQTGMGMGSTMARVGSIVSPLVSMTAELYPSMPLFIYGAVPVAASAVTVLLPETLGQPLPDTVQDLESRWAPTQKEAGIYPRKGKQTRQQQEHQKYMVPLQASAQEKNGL
Description: TP_TRANSPORTER: inhibition of p-amino hippurate uptake (Caspofungin:100 uM) in OAT1-expressing HeLa cells. On the set-up: scale not given: the % may be the effect or the level left.

In data set [6] the target is T4, OCT1 (solute carrier family 22 member 1) (Homo sapiens, UniProt O15245).
T4 sequence (O15245 whole entry): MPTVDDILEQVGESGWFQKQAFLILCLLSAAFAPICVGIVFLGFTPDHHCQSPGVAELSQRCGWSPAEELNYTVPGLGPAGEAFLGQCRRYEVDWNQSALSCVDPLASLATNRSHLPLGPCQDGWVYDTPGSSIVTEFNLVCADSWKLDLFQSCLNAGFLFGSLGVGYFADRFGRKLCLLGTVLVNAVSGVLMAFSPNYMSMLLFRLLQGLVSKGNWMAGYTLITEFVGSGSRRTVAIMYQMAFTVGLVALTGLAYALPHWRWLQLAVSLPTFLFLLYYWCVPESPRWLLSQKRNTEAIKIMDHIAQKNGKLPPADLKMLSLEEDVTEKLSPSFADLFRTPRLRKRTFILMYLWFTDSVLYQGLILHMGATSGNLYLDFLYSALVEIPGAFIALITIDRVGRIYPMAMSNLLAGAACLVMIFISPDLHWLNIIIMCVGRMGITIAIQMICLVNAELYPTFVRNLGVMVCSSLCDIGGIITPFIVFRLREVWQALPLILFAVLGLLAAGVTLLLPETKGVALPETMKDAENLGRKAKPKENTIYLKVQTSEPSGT
Briefly: TP_TRANSPORTER: inhibition of Tetraethyl ammonium uptake (Caspofungin:100 uM) in OCT1-expressing HeLa cells. Details: scale not given: the % may be the effect or the level left. The note with it: HeLa cells that express OCT1, probe tetraethyl ammonium, read-out: Activity.

Data set [7] concerns the target T5, Solute carrier organic anion transporter family member 1B3 (Homo sapiens, UniProt Q9NPD5).
T5 sequence (Q9NPD5 whole entry): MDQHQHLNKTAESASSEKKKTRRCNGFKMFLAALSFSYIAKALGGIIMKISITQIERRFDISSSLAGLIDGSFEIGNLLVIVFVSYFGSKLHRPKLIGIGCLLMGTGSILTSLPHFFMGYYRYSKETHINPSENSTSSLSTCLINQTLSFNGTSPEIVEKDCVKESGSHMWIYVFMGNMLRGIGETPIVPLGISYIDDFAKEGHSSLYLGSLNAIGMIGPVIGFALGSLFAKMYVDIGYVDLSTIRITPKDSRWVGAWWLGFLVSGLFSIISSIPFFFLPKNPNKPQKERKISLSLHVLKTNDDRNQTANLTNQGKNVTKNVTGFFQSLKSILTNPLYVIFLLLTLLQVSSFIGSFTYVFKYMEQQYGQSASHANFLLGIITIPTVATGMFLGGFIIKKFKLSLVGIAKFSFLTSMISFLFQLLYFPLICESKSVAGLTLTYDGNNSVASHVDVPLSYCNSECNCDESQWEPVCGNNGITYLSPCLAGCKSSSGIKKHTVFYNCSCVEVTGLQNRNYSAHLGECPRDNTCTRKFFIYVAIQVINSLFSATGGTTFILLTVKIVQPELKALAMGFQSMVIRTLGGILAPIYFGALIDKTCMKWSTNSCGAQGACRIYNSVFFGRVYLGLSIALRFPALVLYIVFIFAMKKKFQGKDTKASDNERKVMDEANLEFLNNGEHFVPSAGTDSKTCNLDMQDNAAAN
Description: TP_TRANSPORTER: uptake in OATP1B3-expressing Tet-on HeLa cells.

Data set [8] concerns the target T6, OATP1B1 (solute carrier organic anion transporter family member 1B1) (Homo sapiens, UniProt Q9Y6L6).
T6 sequence (Q9Y6L6 whole entry): T2 sequence (Q9Y6L6 whole entry)
Description: TP_TRANSPORTER: inhibition of estradiol-17beta-D-glucuronide uptake (Lovastatin:10 uM) in OATP1B1-expressing HeLa cells. On the set-up: scale not given: the % may be the effect or the level left. Conditions: HeLa cells that express OATP1B1, probe estradiol-17beta-D-glucuronide, read-out: Activity.

The target in data set [9] is T4, OCT1 (solute carrier family 22 member 1). Description: TP_TRANSPORTER: inhibition of Tetraethyl ammonium uptake (Quinidine:100 uM) in OCT1-expressing HeLa cells. Details: scale not given: the % may be the effect or the level left. Conditions: HeLa cells that express OCT1, probe tetraethyl ammonium, read-out: Activity.
In data set [10] the target is T3, Solute carrier family 22 member 6. Description: TP_TRANSPORTER: inhibition of p-amino hippurate uptake (Indomethacin:100 uM) in OAT1-expressing HeLa cells. Details: scale not given: the % may be the effect or the level left.
The target of data set [11] is T1, NTCP (hepatic sodium/bile acid cotransporter). Description: TP_TRANSPORTER: inhibition of Taurocholate uptake (Ursodeoxycholate:10 micro;M) in NTCP-expressing HeLa cells. Details: scale not given: the % may be the effect or the level left. Conditions: HeLa cells that express NTCP, probe taurocholate, read-out: Activity.

Each structure is given as a SMILES string.

Sequence of ATP-dependent translocase ABCB1 (P08183 whole entry): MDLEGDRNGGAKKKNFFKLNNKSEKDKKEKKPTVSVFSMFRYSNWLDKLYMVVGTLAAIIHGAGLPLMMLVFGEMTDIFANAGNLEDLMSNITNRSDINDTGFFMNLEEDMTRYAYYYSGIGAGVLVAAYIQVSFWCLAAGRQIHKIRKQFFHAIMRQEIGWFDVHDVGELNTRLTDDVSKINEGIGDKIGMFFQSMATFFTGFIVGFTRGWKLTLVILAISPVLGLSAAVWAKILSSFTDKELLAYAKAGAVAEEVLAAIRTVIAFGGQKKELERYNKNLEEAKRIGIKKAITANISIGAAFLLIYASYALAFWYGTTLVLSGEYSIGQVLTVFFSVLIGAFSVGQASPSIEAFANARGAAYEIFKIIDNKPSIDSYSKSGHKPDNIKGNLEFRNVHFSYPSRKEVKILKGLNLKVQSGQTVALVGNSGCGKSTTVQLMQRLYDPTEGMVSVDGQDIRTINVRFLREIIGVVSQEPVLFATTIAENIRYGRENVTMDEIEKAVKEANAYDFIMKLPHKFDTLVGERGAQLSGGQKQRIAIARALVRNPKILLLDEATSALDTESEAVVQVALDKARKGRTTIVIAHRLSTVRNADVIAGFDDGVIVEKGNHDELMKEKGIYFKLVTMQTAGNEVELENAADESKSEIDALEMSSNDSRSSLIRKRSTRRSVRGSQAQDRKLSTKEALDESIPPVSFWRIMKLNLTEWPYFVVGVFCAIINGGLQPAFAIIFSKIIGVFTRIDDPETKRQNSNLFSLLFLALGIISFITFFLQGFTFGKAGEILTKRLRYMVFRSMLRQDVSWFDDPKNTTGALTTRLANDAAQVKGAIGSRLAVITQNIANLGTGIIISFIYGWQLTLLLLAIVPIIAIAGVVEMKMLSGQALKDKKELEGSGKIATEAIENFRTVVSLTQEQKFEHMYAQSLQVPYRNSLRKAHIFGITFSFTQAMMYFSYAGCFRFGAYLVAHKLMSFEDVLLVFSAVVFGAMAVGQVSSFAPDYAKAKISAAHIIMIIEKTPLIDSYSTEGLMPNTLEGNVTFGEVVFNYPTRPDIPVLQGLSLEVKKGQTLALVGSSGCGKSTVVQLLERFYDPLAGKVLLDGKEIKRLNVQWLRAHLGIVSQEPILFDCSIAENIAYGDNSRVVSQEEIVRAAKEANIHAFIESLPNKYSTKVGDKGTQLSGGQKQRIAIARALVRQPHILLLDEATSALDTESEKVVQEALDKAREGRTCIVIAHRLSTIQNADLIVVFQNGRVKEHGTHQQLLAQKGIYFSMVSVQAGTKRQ

Consider `CC[C@H](C)C[C@H](C)CCCCCCCCC(=O)N[C@H]1C[C@@H](O)[C@@H](NCCN)NC(=O)[C@@H]2[C@@H](O)CCN2C(=O)[C@H]([C@H](O)CCN)NC(=O)[C@H]([C@H](O)[C@@H](O)c2ccc(O)cc2)NC(=O)[C@@H]2C[C@@H](O)CN2C(=O)[C@H]([C@@H](C)O)NC1=O` [CASPOFUNGIN], for which the activity at 100 µM in data set [1] stood at 10%; in data set [6], 30%. Besides, the Activity entry in [2] was “inhibitor [+]”; in data set [3] it was “substrate [+]”; in data set [4] it was 5%; in data set [5] it was 40%; in [7], “is not a substrate [-]”.
On to `CC[C@H](C)C(=O)O[C@H]1C[C@@H](C)C=C2C=C[C@H](C)[C@H](CC[C@@H]3C[C@@H](O)CC(=O)O3)[C@H]21` [LOVASTATIN], for which, in [8], the activity at 10 µM was found to be 40%.
`C=C[C@H]1C[N@@]2CC[C@H]1C[C@@H]2[C@@H](O)c1ccnc2ccc(OC)cc12` [QUINIDINE]: in data set [9], the activity at 100 µM turned out to be 20%.
Turning to `COc1ccc2c(c1)c(CC(=O)O)c(C)n2C(=O)c1ccc(Cl)cc1` [INDOMETHACIN], the Activity in [10] amounted to 20%.
Turning to `C[C@H](CCC(=O)O)[C@H]1CC[C@H]2[C@@H]3[C@@H](O)C[C@@H]4C[C@H](O)CC[C@]4(C)[C@H]3CC[C@]12C` [URSODIOL], the activity at 10 µM in data set [11] was 30%.
